According to patent EP3807270B1, “NOVEL HETEROARYL HETEROCYCLYL COMPOUNDS FOR THE TREATMENT OF AUTOIMMUNE DISEASE” (F. Hoffmann-La Roche AG, priority 2018, dated 2019):
pIC50: −log10 of the molar value.

Target: T1, human TLR8 (Homo sapiens, UniProt Q9NR97)
T1 construct: host or cells: HEK293 (HEK-Blue)
T1 sequence (Q9NR97 27-1041): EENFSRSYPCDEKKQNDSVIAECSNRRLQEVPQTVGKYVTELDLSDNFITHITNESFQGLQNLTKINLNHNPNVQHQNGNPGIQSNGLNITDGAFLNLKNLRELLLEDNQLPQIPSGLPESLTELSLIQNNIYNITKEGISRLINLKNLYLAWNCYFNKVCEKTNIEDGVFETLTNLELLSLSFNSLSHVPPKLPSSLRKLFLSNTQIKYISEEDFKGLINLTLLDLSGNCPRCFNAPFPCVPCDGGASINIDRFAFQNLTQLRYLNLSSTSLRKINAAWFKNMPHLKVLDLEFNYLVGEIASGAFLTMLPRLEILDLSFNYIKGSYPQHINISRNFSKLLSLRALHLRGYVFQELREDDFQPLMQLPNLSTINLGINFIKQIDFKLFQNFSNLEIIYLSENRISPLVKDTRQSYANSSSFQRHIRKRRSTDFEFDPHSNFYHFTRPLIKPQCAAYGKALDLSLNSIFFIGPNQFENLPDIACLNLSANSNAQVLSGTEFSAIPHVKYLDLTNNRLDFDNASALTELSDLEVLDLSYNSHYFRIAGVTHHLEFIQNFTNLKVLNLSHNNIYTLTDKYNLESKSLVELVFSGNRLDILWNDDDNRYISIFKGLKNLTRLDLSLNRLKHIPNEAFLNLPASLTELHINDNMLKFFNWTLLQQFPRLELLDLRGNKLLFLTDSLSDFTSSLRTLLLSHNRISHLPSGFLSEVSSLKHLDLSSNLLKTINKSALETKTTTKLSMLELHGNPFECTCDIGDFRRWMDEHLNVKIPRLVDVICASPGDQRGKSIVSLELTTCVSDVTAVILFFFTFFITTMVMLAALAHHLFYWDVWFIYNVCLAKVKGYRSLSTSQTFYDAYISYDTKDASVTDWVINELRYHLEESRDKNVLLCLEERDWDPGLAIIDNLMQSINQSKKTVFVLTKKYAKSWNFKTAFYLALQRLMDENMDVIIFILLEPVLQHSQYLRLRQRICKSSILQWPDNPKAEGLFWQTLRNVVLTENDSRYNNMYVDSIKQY
Experiment: HEK293-Blue-hTLR-8 cells assay (SEAP reporter, R848 stimulation)
Type: cell-based
Settings: HEK293-Blue-hTLR8 cells, R848, 20 hrs; read-out: HEK/hTLR8 IC50
In short: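 HEK293-Blue-hTLR8 cells (NF-κB/AP-1-driven SEAP) in DMEM/10% FBS were treated with serially diluted compound (1% DMSO final) plus R848 for 20 hrs at 37 °C. Supernatant SEAP was measured with QUANTI-Blue after 2 hrs at 37 °C, absorbance 620-655 nm; antagonism seen as reduced reporter.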

| Structure (SMILES) | pIC50 |
| --- | --- |
| C[C@@H]1Cc2cnc(N3CCN(C[C@H]4CN(c5ccc(C#N)c6nccnc56)C[C@@H](C)O4)CC3)cc2CN1 (single isomer, unassigned) [Example 82] | 8.52 |
| C[C@@H]1CN(c2ccc(C#N)c3ncccc23)C[C@H](CN2CCN(c3ccc4c(c3)CCNC4CO)CC2)O1 (stereo partly drawn) [Example 24, 5-[(2S,6R)-2-[[4-[1-(hydroxymethyl)-1,2,3,4-tetrahydroisoquinolin-6-yl]piperazin-1-yl]methyl]-6-methyl-morpholin-4-yl]quinoline-8-carbonitrile] | 7.66 |
| C[C@@H]1CN(c2ccc(C#N)c3ncccc23)C[C@H](CN2CCN(c3ccc4c(c3)CNC4)CC2)O1 [Example 7, 5-[(2S,6R)-2-[(4-isoindolin-5-ylpiperazin-1-yl)methyl]-6-methyl-morpholin-4-yl] quinoline-8-carbonitrile] | 7.52 |
| C[C@@H]1CN(c2ccc(C#N)c3ncccc23)C[C@H](CN2C[C@H]3CN(c4ccc5c(n4)CCNC5)CC[C@H]32)O1 (single isomer, unassigned) [Example 55] | 7.80 |
| Cc1nc2c(nc1N1CCN(C[C@H]3CN(c4ccc(C#N)c5ncccc45)C[C@@H](C)O3)CC1)CCNC2 [Example 60, 5-[(2R,6S)-2-methyl-6-[[4-(3-methyl-5,6,7,8-tetrahydropyrido[3,4-b]pyrazin-2-yl)piperazin-1-yl]methyl]morpholin-4-yl]quinoline-8-carbonitrile] | 7.85 |

Now from value to molecule:

| pIC50 | Structure (SMILES) |
| --- | --- |
| 7.70 | C[C@@H]1CN(c2ccc(C#N)c3ncccc23)C[C@H](CN2CCN(c3cnc4c(c3)CN[C@H]4C)CC2)O1 (single isomer, unassigned) [Example 67] |
| 8.52 | C[C@@H]1CN(c2ccc(C#N)c3nccnc23)C[C@H](CN2CCN(c3cc4c(cn3)C[C@H](C)NC4)CC2)O1 (single isomer, unassigned) [Example 81] |
| 8.40 | C[C@@H]1CN(c2ccc(C#N)c3ncccc23)C[C@H](CN2CC3(C2)CN(c2ccc4c(c2)CCNC4)CCO3)O1 [Example 44, 5-[(2R,6S)-2-methyl-6-[[8-(1,2,3,4-tetrahydroisoquinolin-6-yl)-5-oxa-2,8-diazaspiro[3.5]nonan-2-yl]methyl]morpholin-4-yl]quinoline-8-carbonitrile] |
| 8.52 | C[C@@H]1CN(c2ccc(C#N)c3ncccc23)C[C@H](CN2CCN(c3ccc4c(n3)CN[C@H]4C)CC2)O1 (single isomer, unassigned) [Example 63] |
| 8.70 | C[C@@H]1CN(c2ccc(C#N)c3nccnc23)C[C@H](CN2CCN(c3ccc4c(n3)CN[C@H]4C)CC2)O1 (single isomer, unassigned) [Example 78] |
| 8.10 | C[C@@H]1CN(c2ccc(C#N)c3ncccc23)C[C@H](CN2CCN(c3ncc4c(n3)CNC4)CC2)O1 [Example 11, 5-[(2S,6R)-2-[[4-(6,7-dihydro-5Hpyrrolo[3,4-d]pyrimidin-2-yl)piperazin-1-yl]methyl]-6-methyl-morpholin-4-yl]quinoline-8-carbonitrile] |
